Counter-ions that a name gives are not always drawn. Like-named read-outs stand apart in the source and are kept apart here.
Conditions: for percent permeation of applied dose beyond the stratum corneum: single dose, four drugs in combination; for time of (initial) peak flux after dose application: base composition Lipoderm ActiveMax, four drugs applied in combination; for mean flux of percutaneous absorption: ex vivo human trunk skin
Description: An evaluation of the percutaneous absorption of ketamine HCL, gabapentin, clonidine HCL, and baclofen in both Lipoderm® and Lipoderm® ActiveMax™ into human trunk skin, in vitro, using the Franz skin finite dose model was performed. The study was designed to evaluate the percutaneous absorption harmacokinetics of ketamine HCL, gabapentin, clonidine HCL, and baclofen. Absorption was measured in human cadaver skin, in vitro, using the finite dose technique and Franz diffusion cells.
Ketamine HCL 5% w/w, gabapentin 10% w/w, clonidine HCL 0.2% w/w and baclofen 2% w/w, in Lipoderm® and Lipoderm® ActiveMax, were tested on triplicate sections from three different cadaver skin donors for the percutaneous absorption of ketamine HCL, gabapentin, clonidine HCL, and baclofen over a 48-hour dose period. At pre-selected times after dose application, the dermal receptor solution was removed in its entirety, replaced with fresh receptor solution, and an aliquot saved for subsequent analysis. In addition, the epidermis and dermis were recovered and evaluated for drug content. The samples were analyzed for ketamine HCL, gabapentin, clonidine HCL, and baclofen content by High Performance Liquid Chromatography (HPLC)/MS.
The model uses ex vivo animal, human cadaver, or surgical skin mounted in specially designed diffusion cells that allow the skin to be maintained at a temperature and humidity that match typical in vivo conditions. (See Franz, T. J., Percutaneous Absorption: On the Relevance of In Vitro Data. J. Invest. Dermatol, 1975, 64:190-195.)
A finite dose (e.g., 4-7 mg/cm^2) of formulation may be applied to the outer surface of the skin and drug absorption may be measured by monitoring its rate of appearance in the receptor solution bathing the inner surface of the skin. Data defining total absorption, rate of absorption, as well as skin content may be accurately determined in this model. The method has historic precedent for accurately predicting in vivo percutaneous absorption kinetics. (See Franz T. J., The Cadaver Skin Absorption Mode and the Drug Development Process. Pharmacopeial Forum 34(5): 1349-1356, 2008; see also Franz T. J., Lehman P. A., and Raney S., Use of Excised Human Skin to Assess the Bioequivalence of Topical Products. Skin Pharmacol Physiol 22:276-286, 2009.)
During the evaluation, percutaneous adsorption was measured using the in vitro cadaver skin finite dose technique. Human cadaver trunk skin without obvious signs of skin disease, obtained within approximately 24 to 48 hours of death, was used in this study. The skin was dermatomed, cryopreserved, sealed in a water-impermeable bag and stored at approximately −70° C. until the day of the experiment. Prior to use, the skin was thawed in approximately 37° C. water, then rinsed in water to remove any adherent blood or other material from the surface.
Skin from three donors was cut into multiple smaller sections large enough to fit on an approximately nominal 0.8 cm^2 Franz diffusion cells. The dermal chamber was filled to capacity with a reservoir solution of phosphate-buffered isotonic saline (PBS), pH 7.4±0.1, with 0.1% Oleth-20 and 0.008% Gentamicin, and the epidermal cell (chimney) left open to ambient laboratory conditions. All cells were mounted in a diffusion apparatus in which the dermal bathing solution was stirred magnetically at approximately 600 RPM and the skin surface temperature maintained at 32.0°±1.0° C.
To assure the integrity of each skin section, its permeability to tritiated water was determined before application of the test products. (See Franz T. J. and Lehman P. A., The Use of Water Permeability as a Means of Validation for Skin Integrity in In Vitro Percutaneous Absorption Studies. Abst. J. Invest. Dermatol 1990, 94:525.) Following a brief (0.5-1 hour) equilibrium period, ^3H2O (NEN, Boston, Mass., sp. Act. ˜0.5 μCi/mL) was layered across the top of the skin so that the entire exposed surface was covered (approximately 250 to 500 μL).

[1] = Lipoderm ActiveMax base, four drugs simultaneously, intact
[2] = Lipoderm ActiveMax base, about 1 hour after single application
[3] = Lipoderm ActiveMax base, about 3 hours after single application
[4] = Lipoderm ActiveMax base, about 6 hours after single application
[5] = Lipoderm ActiveMax base, about 10 hours after single application
[6] = Lipoderm ActiveMax base, about 18 hours after single application
[7] = Lipoderm ActiveMax base, about 28 hours after single application
[8] = Lipoderm ActiveMax base, about 40 hours after single application

SMILES	penetration of skin from the base composition [1]	percent permeation of applied dose beyond the stratum corneum (Lipoderm ActiveMax base)	percent permeation of applied dose beyond the stratum corneum (Lipoderm base)	time of (initial) peak flux after dose application	mean flux using Lipoderm ActiveMax compared with Lipoderm	minimum mean flux using Lipoderm ActiveMax compared with Lipoderm	penetration of skin from the base composition	mean flux of percutaneous absorption [2]	mean flux of percutaneous absorption [3]	mean flux of percutaneous absorption [4]	mean flux of percutaneous absorption [5]	mean flux of percutaneous absorption [6]	mean flux of percutaneous absorption [7]	mean flux of percutaneous absorption [8]	maximum mean flux (Lipoderm ActiveMax base, single application, 48 hours)	mean flux using Lipoderm ActiveMax compared with Lipoderm (ketamine: most of the 48 hours, from about 2 hours, clonidine: about two to about 40 hours after application)	maximum mean flux using Lipoderm ActiveMax compared with Lipoderm (single application, 48 hours)
NCC(CC(=O)O)c1ccc(Cl)cc1 (stereo not drawn) [baclofen]	penetrate into and through ex vivo human trunk skin	approximately 5.5%	approximately 3.95%	approximately one													
Clc1cccc(Cl)c1N=C1NCCN1 [clonidine, clonidine HCL]					exceed	exceeded	penetrate into and through ex vivo human trunk skin	approximately 0.005 μg/cm^2/hr	approximately 0.007 μg/cm^2/hr	approximately 0.006 μg/cm^2/hr	approximately 0.008 μg/cm^2/hr	approximately 0.008 μg/cm^2/hr	approximately 0.011 μg/cm^2/hr	approximately 0.011 μg/cm^2/hr			
NCC1(CC(=O)O)CCCCC1 [gabapentin]	penetrate into and through ex vivo human trunk skin	approximately 2.6%		approximately one													
CNC1(c2ccccc2Cl)CCCCC1=O (stereo not drawn) [ketamine, ketamine HCL]	penetrate into and through ex vivo human trunk skin	approximately 53.4%	approximately 44.8%					approximately 0.75 μg/cm^2/hr	approximately 3.0 μg/cm^2/hr	approximately 4.1 μg/cm^2/hr	approximately 4.3 μg/cm^2/hr	approximately 2.4 μg/cm^2/hr	approximately 2.5 μg/cm^2/hr	approximately 1.9 μg/cm^2/hr	approximately 4.3 μg/cm^2/hr	exceed	exceeded
